Experimental data reported in patent EP4772497A1, “POLYMORPHS OF NITROGEN-CONTAINING HETEROCYCLIC COMPOUNDS, AND USES THEREOF” (BNH Research Co., Ltd., priority 2023, dated 2025).
Converted amounts (≈) assume the structure as drawn.

Columns and labels:
Assay type in all cases: physicochemical
[1] = Approximate solubility of crystalline form C in dissolution media by visual observation; conditions: thermodynamic from solid, 37°C per table caption (method: 25°C)
Procedure: About 4 mg of crystalline form C was weighed into a 4 mL or 8 mL glass vial, and 4 to 9 mL of dissolution medium was added to dissolve the drug substance at 25°C. The approximate solubility was determined by visual observation.
The solvents and solubility results are shown in Table 11 (solubility of crystalline form C at 37°C).

[2] = Compression simulation experiment (XRPD); conditions: compressed for 5 minutes at 2 MPa, 5 MPa, and 10 MPa
Procedure: About 5 mg of crystalline form C was compressed for 5 minutes at 2 MPa, 5 MPa, and 10 MPa using a hydraulic press. Potential changes in form and crystallinity were evaluated by XRPD.
The XRPD results of the compression simulation experiments are shown in Fig. 10, where CSE1, CSE2, and CSE3 represent experiment IDs for pressures of 2 MPa, 5 MPa, and 10 MPa, respectively.

[3] = Bulk stability of crystalline form C under stress conditions (HPLC, XRPD, color); conditions: for Color / Purity (HPLC) Initial purity:99.9%: 1 week
Procedure: Crystalline form C was placed in an open container at 25°C/92.5% RH, in an open container at 40°C/75% RH, and in a closed container at 60°C for 1 week, respectively. After exposure to the stress conditions, the samples were characterized by XRPD and HPLC, and examined for color changes.
Reference is made to Experimental Method 6 for the HPLC conditions.

[4] = BS1: Solid state, 25°C/92.5% RH, open container
[5] = BS2: Solid state, 40°C/75% RH, open container
[6] = BS3: Solid state, 60°C, closed container

solubility ([1]; aqueous buffer, ES2: pH 4.5 acetate buffer (50mM)): 900 to 1000 µg/mL (≈ 2.87 to 3.19 mM)
solubility ([1]; aqueous buffer, ES3: pH 6.8 phosphate buffer (50mM)): 1800 to 2000 µg/mL (≈ 5.74 to 6.37 mM)
solubility ([1]; simulated gastric fluid, ES1: pH 1.2 HCl buffer (0.2N)): 500 to 600 µg/mL (≈ 1.59 to 1.91 mM)
solubility ([1]; simulated gastric fluid, ES4: SGF, pH 2.0): 400 to 500 µg/mL (≈ 1.27 to 1.59 mM)
solubility ([1]; ES5: FaSSIF-v1, pH 6.5): 1800 to 2000 µg/mL (≈ 5.74 to 6.37 mM)
solubility ([1]; ES6: FeSSIF-v1, pH 5.0): 1800 to 2000 µg/mL (≈ 5.74 to 6.37 mM)
solubility ([1]; ES7: Water): 600 to 700 µg/mL (≈ 1.91 to 2.23 mM)
Color [3, 4]: No color change
Purity (HPLC) Initial purity:99.9% [3, 4]: 99.9%
Color [3, 5]: No color change
Purity (HPLC) Initial purity:99.9% [3, 5]: 99.9%
Color [3, 6]: No color change
Purity (HPLC) Initial purity:99.9% [3, 6]: 99.9%
Compound: C[C@@H]1CC[C@H](C(=O)O)CN1C(=O)Cc1ccc(F)cc1Cl [Crystalline form C, (3S,6R)-1-(2-(2-chloro-4-fluorophenyl)acetyl)-6-methylpiperidine-3-carboxylic acid]
change in form and crystallinity on compression [2]: without any change in form or apparent decrease in crystallinity
bulk stability ([3]; from HPLC and XRPD results after 1 week stress): high bulk stability both physically and chemically
